US5164314A, “Microbiologically-prepared diacetyl reductase” (priority 1988, dated 1992)
Values joined by “and” are separate entries in the source; they are usually repeats but may differ in a detail not shown here. Equal entries are not always repeated. Where two headings read alike, the source gives them in different places.

Tests used:
diacetyl reductase [1] = experiment: Acetoin oxidation reaction with NAD as coenzyme; assay type: biochemical, Lactobacillus kefir; settings: pH and concentrations altered
[2] = tested on: Lc. enzyme (diacetyl reductase); experiment: Effect of various metal cations and inhibitors on the diacetyl-reducing activity; assay type: biochemical, Lactobacillus kefir; settings: for Inhibition of the enzyme (in words): 1 mM concentration
Description: In order to determine the behavior of the diacetyl-reducing activity in the presence of metal cations and inhibitors, the appropriate substances were added in a concentration of 1 mM to the assay, and the activities were determined after an incubation time of 5 min at 20° C. The absorption characteristics of diacetyl made it necessary to determine two blanks, one measured with replacement of enzyme solution, and the other measured by replacing substrate solution by buffer.

diacetyl reductase E1 [3] = experiment: Substrate spectrum and KM determination, enzyme E1; assay type: biochemical, Lactobacillus kefir; design: Rel. Vmax E1: unit not given here
diacetyl reductase E2 [4] = experiment: Stereospecificity by oxidation of D(-)- and L(+)-lactic acid, enzyme E2; assay type: biochemical, Lactobacillus kefir; settings: NAD+, potassium phosphate buffer pH 7.0
Description: (§1) But since the enzyme can also reduce pyruvate (as shown in Table 5), this provides a method of establishing the stereospecificity on the basis of the pair of substrates (+)- and (-)-lactate. In assay mixtures with D(-)- or L(+)-lactic acid and NAD^+ in potassium phosphate buffer (pH 7.0), the two enzymes E1 and E2 were able to convert D(-)-lactic acid very well, whereas […] was converted with 5% of this activity by E1 and with 4% of this activity by E2.

diacetyl reductase E1 [5] = experiment: Stereospecificity by oxidation of D(-)- and L(+)-lactic acid, enzyme E1; assay type: biochemical, Lactobacillus kefir; settings: NAD+, potassium phosphate buffer pH 7.0
Description: as §1

diacetyl reductase E2 [6] = experiment: Substrate spectrum and KM determination, enzyme E2; assay type: biochemical, Lactobacillus kefir
Description: To determine KM, the activity of both Lactobacillus enzymes was measured as a function of the substrate concentration.
Various substrates were assayed with the most highly-purified preparations of the Lc. enzymes E1 and E2. The maximum conversion rate and KM were measured for each substrate by altering the concentration.

diacetyl reductase [7] = tested on: diacetyl reductase
Description: The enzyme was incubated with various concentrations of manganese chloride in an ice bath for 1 hour. The activity of each sample was then determined and, after 15 and 30 min, the activities were redetermined by renewed NADH addition.

[8] = Conversion of diacetyl by available lactate dehydrogenase; assay type: biochemical
Description: But it can be stated that, when available lactate dehydrogenase is used, diacetyl is not converted.

[9] = 1 mM, incubation 5 min at 20° C.
[10] = most highly-purified E1, read-out: Km E1
[11] = most highly-purified E2, read-out: Km E2

CC(=O)C(C)O (single isomer, unassigned) [acetoin]
acetoin oxidation reaction (in words) (diacetyl reductase [1]): never possible to measure

O[C@H](CS)[C@@H](O)CS [1,4-Dithioerythritol]
Residual activity of the Lc. enzyme [2, 9]: 72%

c1cnc2c(c1)ccc1cccnc12 [1,10-Phenanthroline]
Inhibition of the enzyme (in words) [2]: strong inhibition
Residual activity of the Lc. enzyme [2, 9]: 0%

c1ccc(-c2ccccn2)nc1 [2,2'-Bipyridyl]
Residual activity of the Lc. enzyme [2, 9]: 19%

O=C(O)c1cc(SSc2ccc([N+](=O)[O-])c(C(=O)O)c2)ccc1[N+](=O)[O-] [2,2'-Dinitro-5,5'-dithiodibenzoic acid]
Inhibition of the enzyme (in words) [2]: strong inhibition
Residual activity of the Lc. enzyme [2, 9]: 0%

CC(=O)CCC(C)=O [2,5-Hexanedione]
Rel. Vmax E1 (diacetyl reductase E1 [3]; most highly-purified E1): 7
Km (diacetyl reductase E1 [3]; [10]): 26 mM

CC(=O)CC(C)=O [Acetylacetone, 2,4-pentanedione]
Km (diacetyl reductase E1 [3]; enzyme not named in b63 (E1 in Table 5), read-out: Km for acetylacetone): 50 mM
Rel. Vmax E1 (diacetyl reductase E1 [3]; most highly-purified E1): 8
Km (diacetyl reductase E1 [3]; [10]): 50 mM

[Ba+2].[Cl-].[Cl-] [BaCl2]
Residual activity of the Lc. enzyme [2, 9]: 102%

[Ca+2].[Cl-].[Cl-] [CaCl2]
Residual activity of the Lc. enzyme [2, 9]: 96%

[Cl-].[Cl-].[Co+2] [CoCl2]
Residual activity of the Lc. enzyme [2, 9]: 102%

[Cl][Cu][Cl] [CuCl2]
Inhibition of the enzyme (in words) [2]: strong inhibition
Residual activity of the Lc. enzyme [2, 9]: 0%

C[C@@H](O)C(=O)O [D(-)-lactic acid]
Conversion of lactic acid by E2 (in words) (diacetyl reductase E2 [4]): very well
Conversion of lactic acid by E1 (in words) (diacetyl reductase E1 [5]): very well

CC(=O)C(C)=O [Diacetyl]
diacetyl concentration of substrate saturation, E1 (diacetyl reductase E1 [3]): above 1 M
Rel. Vmax E1 (diacetyl reductase E1 [3]; most highly-purified E1): 100
diacetyl concentration of substrate saturation, E2 (diacetyl reductase E2 [6]): above 1 M
Km (diacetyl reductase E2 [6]; linear regression of Lineweaver-Burke plot, read-out: Km (E2)): 67 mM
Rel. Vmax E2 (diacetyl reductase E2 [6]; most highly-purified E2): 100
Km (diacetyl reductase E2 [6]; [11]): 67 mM
Km (diacetyl reductase E2 [6]; pH 4.25, read-out: KM for the reduction of diacetyl (E2)): 67 mM

CCC(CC)(C(=O)O)C(=O)O [Diethylmalonic acid]
Residual activity of the Lc. enzyme [2, 9]: 100%

O[C@H](CS)[C@H](O)CS [Dithiothreitol]
Residual activity of the Lc. enzyme [2, 9]: 106%

O=C(O)CN(CCN(CC(=O)O)CC(=O)O)CC(=O)O [EDTA]
Residual activity of the Lc. enzyme [2]: 94%

CCOC(=O)C(C)=O [Ethyl pyruvate]
Rel. Vmax E1 (diacetyl reductase E1 [3]; most highly-purified E1): 109
Km (diacetyl reductase E1 [3]; [10]): 2.4 mM
Rel. Vmax E2 (diacetyl reductase E2 [6]; most highly-purified E2): 77
Km (diacetyl reductase E2 [6]; [11]): 2.1 mM

[Cl][Fe][Cl] [FeCl2]
Inhibition of the enzyme (in words) [2]: strong inhibition
Residual activity of the Lc. enzyme [2, 9]: 0%

[Cl][Fe]([Cl])[Cl] [FeCl3]
Residual activity of the Lc. enzyme [2, 9]: 82%

N[C@@H](CCC(=O)N[C@@H](CS)C(=O)NCC(=O)O)C(=O)O [Gluthathione]
Residual activity of the Lc. enzyme [2, 9]: 103%

[Cl][Hg][Cl] [HgCl2]
Inhibition of the enzyme (in words) [2]: strong inhibition
Residual activity of the Lc. enzyme [2, 9]: 0%

NC(=O)CI [Iodoacetamide]
Residual activity of the Lc. enzyme [2, 9]: 99%

O=C(O)CI [Iodoacetic acid]
Residual activity of the Lc. enzyme [2]: 102%

C[C@H](O)C(=O)O [L(-)-lactic acid, L(+)-lactic acid]
Activity relative to that with D(-)-lactic acid, E2 (diacetyl reductase E2 [4]): 4%
Activity relative to that with D(-)-lactic acid, E1 (diacetyl reductase E1 [5]): 5%

N[C@H]1CONC1=O [L-Cycloserine]
Residual activity of the Lc. enzyme [2, 9]: 100%

[Cl-].[Cl-].[Mg+2] [MgCl2]
Inhibition of the enzyme (in words) [2]: strong inhibition
Residual activity of the Lc. enzyme [2, 9]: 0%

[Cl][Mn][Cl] [MnCl2, manganese chloride]
Residual activity of the Lc. enzyme [2, 9]: 91%
rel. activity (diacetyl reductase [7]; 1 mM manganese, 15 min): 69%
rel. activity (diacetyl reductase [7]; 1 mM manganese, 30 min): 0.3%
rel. activity (diacetyl reductase [7]; 1 mM manganese, t = 0): 100%
rel. activity (diacetyl reductase [7]; 2 mM manganese, 15 min): 79%
rel. activity (diacetyl reductase [7]; 2 mM manganese, 30 min): 25%
rel. activity (diacetyl reductase [7]; 2 mM manganese, t = 0): 100%
Effect on enzyme stability (in words) (diacetyl reductase [7]; 5 mM): distinctly stabilizes the enzyme
rel. activity (diacetyl reductase [7]; 5 mM manganese, 15 min): 88%
rel. activity (diacetyl reductase [7]; 5 mM manganese, 30 min): 39%
rel. activity (diacetyl reductase [7]; 5 mM manganese, t = 0): 100%
rel. activity (diacetyl reductase [7]; 10 mM manganese, 15 min): 46%
rel. activity (diacetyl reductase [7]; 10 mM manganese, 30 min): 19%
rel. activity (diacetyl reductase [7]; 10 mM manganese, t = 0): 100%

CCN1C(=O)C=CC1=O [N-Ethylmaleimide]
Residual activity of the Lc. enzyme [2, 9]: 112%

NC(=O)C1=CN([C@@H]2O[C@H](COP(=O)(O)OP(=O)(O)OC[C@H]3O[C@@H](n4cnc5c(N)ncnc54)[C@H](O)[C@@H]3O)[C@@H](O)[C@H]2O)C=CC1 [NADH, nicotinamide adenine dinucleotide, reduced]
Rel. Vmax E1 (diacetyl reductase E1 [3]; most highly-purified E1): 100
Km (diacetyl reductase E1 [3]; [10]): 0.03 mM
Rel. Vmax E2 (diacetyl reductase E2 [6]; most highly-purified E2): 100
Km (diacetyl reductase E2 [6]; [11]): 0.036 mM

[Cl][Ni][Cl] [NiCl2]
Residual activity of the Lc. enzyme [2, 9]: 100%

O=S(=O)(F)Cc1ccccc1 [PMSF]
Inhibition of the enzyme (in words) [2]: less inhibition
Residual activity of the Lc. enzyme [2, 9]: 29% and 30%

NNc1ccccc1 [Phenylhydrazine]
Inhibition of the enzyme (in words) [2]: strong inhibition
Residual activity of the Lc. enzyme [2, 9]: 0%

[Cl-].[Cl-].[Zn+2] [ZnCl2]
Residual activity of the Lc. enzyme [2, 9]: 85%

O=C(O)c1cc[c]([Hg+])cc1.[OH-] [p-Hydroxymercuribenzoate]
Residual activity of the Lc. enzyme [2, 9]: 79%

Diacetylbenzene
Rel. Vmax E1 (diacetyl reductase E1 [3]; most highly-purified E1): 1.3

Triton X-100
Residual activity of the Lc. enzyme [2, 9]: 113%

lactate dehydrogenase
conversion of diacetyl (in words) [8]: not converted
